Experimental data taken from US12495798B2, “Nicotinamide compound and herbicidal composition comprising compound” (KOREA RESEARCH INSTITUTE OF CHEMICAL TECHNOLOGY, priority 2019, dated 2025).

Assays:
Format in all cases: in vivo
[1] = test system: quack grass; assay: Herbicidal activity test against upland field weeds (foliar treatment test); design: key to Foliar treatment herbicidal activity, quack grass: 0 (no control); 100 (complete control); settings: 50 g ai/ha, scale 0-100
How it was run: (§1)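 Weeds were raised from seed or rootstocks in horticultural soil in a greenhouse (30±5° C., 14/10 h light/dark), then foliage was hand-sprayed with compound at 50 or 75 g a.i./ha in 50% acetone with 0.1% Tween-20. Control was scored visually 0–100 against untreated plants after 14 days, or 21 if needed.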

[2] = test system: fall panicum; assay: as above; settings: 50 g ai/ha, scale 0-100; for pest or weed control at 50 g/ha: Panicum dichotomiflorum
How it was run: as §1

[3] = test system: wheat; assay: Phytotoxicity test for upland field crops (foliar treatment test); design: key: 0 (no harm); 9 (complete withered)
How it was run: (§2)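 Application rate ranged 19˜300 g a.i./ha, delivered as a foliar spray (100 ml/m^2) in 33% acetone with 0.1% Tween-20 to crops raised at 30±5 °C under 14/10 h light/dark. Symptoms were assessed 7 and 14 days post-treatment, extending to 21 days where necessary, using a 0–9 injury grade relative to untreated control.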

[4] = test system: corn; assay: as above; design: key: 0 (no harm); 9 (complete withered)
How it was run: as §2

[5] = test system: black nightshade; assay: Herbicidal activity test against upland field weeds (foliar treatment test); design: key to Foliar treatment herbicidal activity, black nightshade: 0 (no control); 100 (complete control); settings: 50 g ai/ha, scale 0-100; for pest or weed control at 50 g/ha: Solanum nigrum
How it was run: as §1

[6] = test system: sorghum; assay: as above; design: key to Foliar treatment herbicidal activity, Sorghum: 0 (no control); 100 (complete control); settings: 50 g ai/ha, scale 0-100; for plant injury at 50 g/ha: Sorghum
How it was run: as §1

[7] = test system: indian jointvetch; assay: as above; settings: 50 g ai/ha, scale 0-100
How it was run: as §1

[8] = test system: cocklebur; assay: as above; settings: 50 g ai/ha, scale 0-100; for pest or weed control at 50 g/ha: Xanthium strumarium
How it was run: as §1

[9] = test system: velvetleaf; assay: as above; settings: 50 g ai/ha; for pest or weed control at 50 g/ha: Abutilon theophrasti, scale 0-100, read-out: Foliar treatment herbicidal activity, velvet leaf; for Foliar treatment herbicidal activity, velvet leaf: scale 0-100
How it was run: as §1

[10] = test system: crabgrass; assay: as above; settings: 50 g ai/ha, scale 0-100; for pest or weed control at 50 g/ha: Digitaria sanguinalis
How it was run: as §1

[11] = test system: bindweed; assay: as above; settings: 50 g ai/ha, scale 0-100
How it was run: as §1

[12] = test system: barnyard grass; assay: as above; settings: 50 g ai/ha, scale 0-100; for pest or weed control at 50 g/ha: Echinochloa crus-galli
How it was run: as §1

[13] = 50 g ai/ha, Wheat (7 days after treatment)
[14] = 50 g ai/ha, Wheat (14 days after treatment)
[15] = 100 g ai/ha, Wheat (7 days after treatment)
[16] = 100 g ai/ha, Wheat (14 days after treatment)
[17] = 50 g ai/ha, Corn (7 days after treatment)
[18] = 50 g ai/ha, Corn (14 days after treatment)
[19] = 100 g ai/ha, Corn (7 days after treatment)
[20] = 100 g ai/ha, Corn (14 days after treatment)

SMILES | pest or weed control at 50 g/ha [2] | Foliar treatment phytotoxicity, Wheat [3, 13] | Foliar treatment phytotoxicity, Wheat [3, 14] | Foliar treatment phytotoxicity, Wheat [3, 15] | Foliar treatment phytotoxicity, Wheat [3, 16] | Foliar treatment phytotoxicity, Corn [4, 17] | Foliar treatment phytotoxicity, Corn [4, 18] | Foliar treatment phytotoxicity, Corn [4, 19] | Foliar treatment phytotoxicity, Corn [4, 20] | Foliar treatment herbicidal activity, black nightshade [5] | plant injury at 50 g/ha [6] | pest or weed control at 50 g/ha [7] | pest or weed control at 50 g/ha [8] | pest or weed control at 50 g/ha [9] | pest or weed control at 50 g/ha [10] | pest or weed control at 50 g/ha [11] | pest or weed control at 50 g/ha [12] | Foliar treatment herbicidal activity, quack grass [1] | Foliar treatment herbicidal activity, Fall panicum [2] | Foliar treatment herbicidal activity, Sorghum [6] | also measured
CCCn1nnnc1NC(=O)c1ccc(C(F)(F)F)nc1COCc1nc(C(F)(F)F)n(C)n1 [Compound No. 2-120, 2-(((1-methyl-5-(trifluoromethyl)-1H-1,2,4-triazol-3-yl)methoxy)methyl)-N-(1-propyl-1H-tetrazol-5-yl)-6-(trifluoromethyl)nicotinamide] | 90% | 0 | 0 | 0 | 0 | 0 | 0 | 0 | 0 | 100 | 10% | 60% | 90% | 80% | 95% | 50% | 80% | – | – | – | pest or weed control at 50 g/ha [1]: 10%
C=CCn1nnnc1NC(=O)c1ccc(C(F)(F)F)nc1COCc1nc(C(F)(F)F)n(C)n1 [Compound No. 2-121, N-(1-allyl-1H-tetrazol-5-yl)-2-(((1-methyl-5-(trifluoromethyl)-1H-1,2,4-triazol-3-yl)methoxy)methyl)-6-(trifluoromethyl)nicotinamide] | 50% | 0 | 0 | 0 | 0 | 0 | 0 | 0 | 0 | – | 10% | 30% | 70% | 40% | 30% | 40% | 20% | 0 | – | – | pest or weed control at 50 g/ha [5]: 95%
C#CCn1nnnc1NC(=O)c1ccc(C(F)(F)F)nc1COCc1nc(C(F)(F)F)n(C)n1 [Compound No. 2-122] | – | 0 | 0 | 0 | 0 | 0 | 0 | 0 | 0 | 95 | – | – | – | – | – | – | – | 30 | 40 | 0 | Foliar treatment herbicidal activity, Indian jointvetch [7]: 70; Foliar treatment herbicidal activity, Cocklebur [8]: 80; Foliar treatment herbicidal activity, velvet leaf [9]: 50; Foliar treatment herbicidal activity, Crabgrass [10]: 20; Foliar treatment herbicidal activity, Bindweed [11]: 70; Foliar treatment herbicidal activity, barnyard grass [12]: 50
Cn1nnnc1NC(=O)c1ccc(C(F)(F)F)nc1COCc1nc(C(F)F)n(C)n1 [Compound No. 2-123] | – | 0 | 0 | 0 | 0 | 3 | 2 | 4 | 4 | 98 | – | – | – | – | – | – | – | 40 | 95 | 70 | Foliar treatment herbicidal activity, Indian jointvetch [7]: 70; Foliar treatment herbicidal activity, Cocklebur [8]: 90; Foliar treatment herbicidal activity, velvet leaf [9]: 70; Foliar treatment herbicidal activity, Crabgrass [10]: 95; Foliar treatment herbicidal activity, Bindweed [11]: 80; Foliar treatment herbicidal activity, barnyard grass [12]: 95
CCCn1nnnc1NC(=O)c1ccc(C(F)(F)F)nc1COCc1nc(C(F)F)n(C)n1 [Compound No. 2-124] | – | 0 | 1 | 1 | 1 | 2 | 1 | 3 | 2 | 95 | – | – | – | – | – | – | – | 20 | 90 | 40 | Foliar treatment herbicidal activity, Indian jointvetch [7]: 60; Foliar treatment herbicidal activity, Cocklebur [8]: 80; Foliar treatment herbicidal activity, velvet leaf [9]: 60; Foliar treatment herbicidal activity, Crabgrass [10]: 95; Foliar treatment herbicidal activity, Bindweed [11]: 70; Foliar treatment herbicidal activity, barnyard grass [12]: 90
C=CCn1nnnc1NC(=O)c1ccc(C(F)(F)F)nc1COCc1nc(C(F)F)n(C)n1 [Compound No. 2-125, N-(1-allyl-1H-tetrazol-5-yl)-2-(((5-(difluoromethyl)-1-methyl-1H-1,2,4-triazol-3-yl)methoxy)methyl)-6-(trifluoromethyl)nicotinamide] | 90% | 0 | 0 | 0 | 0 | 0 | 0 | 1 | 1 | – | 30% | 60% | 80% | 40% | 95% | 95% | 60% | – | – | – | pest or weed control at 50 g/ha [1]: 40%; pest or weed control at 50 g/ha [5]: 95%
Cn1nc(COCc2nc(C(F)(F)F)ccc2C(=O)Nc2nnnn2C)nc1CF [Compound No. 2-126, 2-(((5-(fluoromethyl)-1-methyl-1H-1,2,4-triazol-3-yl)methoxy)methyl)-N-(1-methyl-1H-tetrazol-5-yl)-6-(trifluoromethyl)nicotinamide] | 80% | 0 | 0 | 0 | 0 | 1 | 1 | 3 | 2 | 100 | 60% | 50% | 90% | 80% | 90% | 20% | 80% | 0 | – | – | –
